{"source": "ChEMBL document CHEMBL5465560", "about": "“Selectivity Literature for EUbOPEN Chemogenomic Library” (2024)", "key": {"[1]": {"target": "Serine/threonine-protein kinase Chk2 (Homo sapiens) (UniProt O96017)", "sequence (O96017 whole entry)": "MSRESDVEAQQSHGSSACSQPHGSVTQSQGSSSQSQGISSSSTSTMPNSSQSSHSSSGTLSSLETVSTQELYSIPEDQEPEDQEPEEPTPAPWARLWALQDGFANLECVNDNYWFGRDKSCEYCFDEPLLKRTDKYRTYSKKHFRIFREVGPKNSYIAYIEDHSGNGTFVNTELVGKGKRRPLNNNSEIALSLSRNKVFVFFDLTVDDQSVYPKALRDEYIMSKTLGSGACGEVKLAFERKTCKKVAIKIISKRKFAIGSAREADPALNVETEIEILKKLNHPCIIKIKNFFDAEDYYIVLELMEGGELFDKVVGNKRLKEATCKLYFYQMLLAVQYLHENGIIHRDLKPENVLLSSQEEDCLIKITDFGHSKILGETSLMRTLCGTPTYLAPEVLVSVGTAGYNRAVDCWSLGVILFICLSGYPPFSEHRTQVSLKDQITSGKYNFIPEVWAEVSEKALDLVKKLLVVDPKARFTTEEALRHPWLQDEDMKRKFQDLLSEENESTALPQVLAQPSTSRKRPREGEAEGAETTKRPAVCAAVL", "assay": "Selectivity interaction (KinomeScan (DiscoverX)) EUB0000595a CHEK2", "settings": "at 10 µM"}, "[2]": {"target": "T1, Serine/threonine-protein kinase Nek11 (Homo sapiens) (UniProt Q8NG66)", "T1 sequence (whole entry)": "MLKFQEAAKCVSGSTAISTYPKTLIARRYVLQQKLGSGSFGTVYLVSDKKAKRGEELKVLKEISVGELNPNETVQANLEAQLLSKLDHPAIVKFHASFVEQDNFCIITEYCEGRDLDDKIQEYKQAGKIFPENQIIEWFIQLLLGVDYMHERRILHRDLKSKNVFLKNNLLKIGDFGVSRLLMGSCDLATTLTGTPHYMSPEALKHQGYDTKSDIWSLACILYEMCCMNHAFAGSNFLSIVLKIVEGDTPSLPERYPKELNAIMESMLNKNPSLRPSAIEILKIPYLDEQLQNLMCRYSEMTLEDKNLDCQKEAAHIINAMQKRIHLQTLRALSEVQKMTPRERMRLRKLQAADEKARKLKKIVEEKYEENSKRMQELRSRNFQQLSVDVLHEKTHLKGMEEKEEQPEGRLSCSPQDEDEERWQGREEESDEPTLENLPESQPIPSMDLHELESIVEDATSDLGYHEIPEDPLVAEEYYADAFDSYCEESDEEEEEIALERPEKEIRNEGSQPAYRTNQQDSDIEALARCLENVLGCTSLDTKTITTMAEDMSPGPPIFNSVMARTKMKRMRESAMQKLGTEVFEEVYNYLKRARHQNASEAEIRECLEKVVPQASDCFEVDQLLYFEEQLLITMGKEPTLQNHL", "assay": "Selectivity interaction (KinomeScan (DiscoverX)) EUB0000595a NEK11", "settings": "at 10 µM"}, "[3]": {"target": "T2, Tyrosine-protein kinase Tec (Homo sapiens) (UniProt P42680)", "T2 sequence (whole entry)": "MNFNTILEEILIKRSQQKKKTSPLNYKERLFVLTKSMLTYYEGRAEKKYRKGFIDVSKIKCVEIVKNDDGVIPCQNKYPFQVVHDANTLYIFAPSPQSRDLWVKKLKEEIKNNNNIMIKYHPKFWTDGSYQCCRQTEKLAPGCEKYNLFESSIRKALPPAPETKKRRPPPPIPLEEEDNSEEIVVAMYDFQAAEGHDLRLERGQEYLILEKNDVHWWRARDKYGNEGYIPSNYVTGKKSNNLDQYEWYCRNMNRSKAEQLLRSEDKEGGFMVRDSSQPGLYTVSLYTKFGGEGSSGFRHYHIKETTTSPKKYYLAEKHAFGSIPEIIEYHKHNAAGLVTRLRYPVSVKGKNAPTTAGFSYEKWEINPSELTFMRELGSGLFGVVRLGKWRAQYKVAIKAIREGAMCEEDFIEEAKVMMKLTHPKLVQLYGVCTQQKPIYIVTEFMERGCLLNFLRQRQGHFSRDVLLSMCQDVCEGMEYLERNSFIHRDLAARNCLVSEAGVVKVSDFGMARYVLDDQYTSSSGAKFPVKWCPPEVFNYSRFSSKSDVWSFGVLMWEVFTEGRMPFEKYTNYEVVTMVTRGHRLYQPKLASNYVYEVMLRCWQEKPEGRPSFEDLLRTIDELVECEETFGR", "assay": "Selectivity interaction (KinomeScan (DiscoverX)) EUB0000045b TEC"}, "[4]": {"target": "Mitogen-activated protein kinase 9 (Homo sapiens, UniProt P45984)", "sequence (P45984 whole entry, looked up)": "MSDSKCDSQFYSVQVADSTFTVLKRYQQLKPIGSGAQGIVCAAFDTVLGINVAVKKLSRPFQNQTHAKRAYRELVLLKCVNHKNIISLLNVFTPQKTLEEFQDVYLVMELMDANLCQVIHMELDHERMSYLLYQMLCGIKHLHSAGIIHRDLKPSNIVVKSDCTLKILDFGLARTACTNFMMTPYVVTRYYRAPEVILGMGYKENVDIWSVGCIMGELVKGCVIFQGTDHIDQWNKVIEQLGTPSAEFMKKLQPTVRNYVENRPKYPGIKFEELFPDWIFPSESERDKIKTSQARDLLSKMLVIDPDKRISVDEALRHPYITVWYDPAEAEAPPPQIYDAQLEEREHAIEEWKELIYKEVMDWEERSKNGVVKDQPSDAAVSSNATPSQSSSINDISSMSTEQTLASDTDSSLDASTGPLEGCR", "assay": "Selectivity interaction (KinomeScan (DiscoverX)) EUB0001079a MAPK9", "settings": "at 1 µM"}, "[5]": {"target": "SRSF protein kinase 3 (Homo sapiens) (UniProt Q9UPE1)", "sequence (Q9UPE1 whole entry)": "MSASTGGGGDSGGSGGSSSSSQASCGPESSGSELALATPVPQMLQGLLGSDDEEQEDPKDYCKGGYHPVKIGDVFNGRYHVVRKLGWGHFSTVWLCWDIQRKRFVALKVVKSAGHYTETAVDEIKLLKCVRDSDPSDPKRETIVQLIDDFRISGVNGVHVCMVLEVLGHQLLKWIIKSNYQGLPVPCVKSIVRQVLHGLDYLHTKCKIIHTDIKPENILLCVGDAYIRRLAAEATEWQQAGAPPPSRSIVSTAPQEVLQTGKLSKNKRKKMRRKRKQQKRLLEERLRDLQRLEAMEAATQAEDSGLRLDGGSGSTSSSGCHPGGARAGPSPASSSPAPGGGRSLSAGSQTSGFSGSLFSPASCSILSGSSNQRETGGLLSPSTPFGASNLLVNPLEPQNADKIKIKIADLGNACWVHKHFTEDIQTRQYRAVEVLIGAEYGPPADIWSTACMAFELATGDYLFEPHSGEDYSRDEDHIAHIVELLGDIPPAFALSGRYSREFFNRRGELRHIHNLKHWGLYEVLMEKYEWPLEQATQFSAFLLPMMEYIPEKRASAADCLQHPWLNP", "settings": "at 10 µM"}, "[6]": {"target": "T3, Aurora kinase A (Homo sapiens) (UniProt O14965)", "T3 sequence (whole entry)": "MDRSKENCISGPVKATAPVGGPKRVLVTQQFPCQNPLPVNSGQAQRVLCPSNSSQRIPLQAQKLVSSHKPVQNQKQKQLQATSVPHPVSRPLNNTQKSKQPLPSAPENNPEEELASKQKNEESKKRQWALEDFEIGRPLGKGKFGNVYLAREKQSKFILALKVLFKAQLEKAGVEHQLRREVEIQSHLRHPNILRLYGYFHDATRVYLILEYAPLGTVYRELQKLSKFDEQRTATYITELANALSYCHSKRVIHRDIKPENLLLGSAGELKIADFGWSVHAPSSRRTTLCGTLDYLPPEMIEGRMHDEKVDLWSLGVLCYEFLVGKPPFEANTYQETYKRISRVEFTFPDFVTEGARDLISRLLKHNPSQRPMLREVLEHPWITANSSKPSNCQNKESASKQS", "assay": "Selectivity interaction (Kinase panel (Carna Biosciences)) EUB0001542aTs STK6", "settings": "at 1 µM"}, "[7]": {"target": "Protein-tyrosine kinase 6 (Homo sapiens, UniProt Q13882)", "sequence (Q13882 whole entry, looked up)": "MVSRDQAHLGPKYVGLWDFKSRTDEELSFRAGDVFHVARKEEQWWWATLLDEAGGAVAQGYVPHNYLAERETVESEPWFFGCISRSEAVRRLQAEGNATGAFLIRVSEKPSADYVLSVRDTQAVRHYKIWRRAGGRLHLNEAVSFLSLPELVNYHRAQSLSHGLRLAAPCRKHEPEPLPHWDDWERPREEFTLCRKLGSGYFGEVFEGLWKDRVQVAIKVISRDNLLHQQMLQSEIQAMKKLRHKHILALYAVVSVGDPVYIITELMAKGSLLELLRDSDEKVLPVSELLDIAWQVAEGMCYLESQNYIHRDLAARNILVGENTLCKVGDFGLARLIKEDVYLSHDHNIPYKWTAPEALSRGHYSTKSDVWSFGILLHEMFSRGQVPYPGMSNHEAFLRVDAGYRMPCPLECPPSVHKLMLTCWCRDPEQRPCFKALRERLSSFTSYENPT", "assay": "Selectivity interaction (KinaseProfiler screening (Millipore)) EUB0000601a PTK6", "settings": "at 3 µM"}, "[8]": {"target": "Mitogen-activated protein kinase 11 (Homo sapiens) (UniProt Q15759)", "sequence (Q15759 whole entry)": "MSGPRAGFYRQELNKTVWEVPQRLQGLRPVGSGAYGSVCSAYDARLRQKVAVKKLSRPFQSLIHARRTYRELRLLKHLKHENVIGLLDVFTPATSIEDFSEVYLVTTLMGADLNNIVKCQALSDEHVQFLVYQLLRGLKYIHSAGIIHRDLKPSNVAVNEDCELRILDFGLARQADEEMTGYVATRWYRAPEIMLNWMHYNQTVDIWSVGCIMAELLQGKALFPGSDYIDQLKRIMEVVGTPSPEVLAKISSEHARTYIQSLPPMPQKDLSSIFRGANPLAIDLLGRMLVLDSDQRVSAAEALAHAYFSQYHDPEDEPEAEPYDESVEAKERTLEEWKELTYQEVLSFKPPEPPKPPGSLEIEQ", "assay": "Selectivity interaction (SelectScreen profiling (Invitrogen)) EUB0000607a MAPK11", "settings": "at 2 µM"}, "[9]": {"target": "T4, Serine/threonine-protein kinase 3 (Homo sapiens) (UniProt Q13188)", "T4 sequence (whole entry)": "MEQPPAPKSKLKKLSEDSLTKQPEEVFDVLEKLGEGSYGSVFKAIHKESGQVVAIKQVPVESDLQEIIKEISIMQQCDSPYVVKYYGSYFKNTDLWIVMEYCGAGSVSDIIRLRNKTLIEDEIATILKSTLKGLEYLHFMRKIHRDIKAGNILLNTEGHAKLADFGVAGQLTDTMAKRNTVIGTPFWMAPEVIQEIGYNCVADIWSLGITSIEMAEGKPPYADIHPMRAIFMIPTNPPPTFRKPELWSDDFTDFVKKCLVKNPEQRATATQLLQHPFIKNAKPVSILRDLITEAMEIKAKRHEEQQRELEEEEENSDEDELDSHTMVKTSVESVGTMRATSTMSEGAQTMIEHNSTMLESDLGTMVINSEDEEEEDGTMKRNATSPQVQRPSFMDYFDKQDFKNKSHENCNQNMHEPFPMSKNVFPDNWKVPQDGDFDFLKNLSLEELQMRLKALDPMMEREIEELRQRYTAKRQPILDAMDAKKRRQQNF", "assay": "Selectivity interaction (ActivX KiNativ screen (kinase selectivity in THP-1 cell lysates)) EUB0000639a STK3", "type": "subcellular", "settings": "lysate, at 5 µM"}}, "data": [{"compound": "COCC(=O)NC/C=C/c1ccc2ncnc(Nc3ccc(Oc4ccc(C)nc4)c(C)c3)c2c1", "note": "[CP-724714]", "values": [{"measurement": "% of control", "setting": "[1]", "result": 55, "unit": "%"}, {"measurement": "% of control", "setting": "[2]", "result": 100, "unit": "%"}]}, {"compound": "C=CC(=O)Nc1cc(-n2c(=O)ccc3cnc4ccc(-c5ccc(NS(C)(=O)=O)cc5)cc4c32)ccc1C", "values": [{"measurement": "% of control", "setting": "[3]; at 1 µM", "result": 27, "unit": "%"}, {"measurement": "% of control", "setting": "[3]; at 10 µM", "result": 4.2, "unit": "%"}]}, {"compound": "Nc1cnc(N2CCc3cc(S(=O)(=O)Nc4c(F)cc(Cl)cc4F)cc(N4CCCC4=O)c32)nc1", "note": "[TP-020n]", "values": [{"measurement": "% of control", "setting": "[4]", "result": 84, "unit": "%"}]}, {"compound": "Cc1cc([C@@H](C)Nc2ccccc2C(=O)O)c2nc(N3CCOCC3)cc(=O)n2c1", "note": "[AZD-6482]", "values": [{"measurement": "% of control", "setting": "[5]", "result": 100, "unit": "%"}]}, {"compound": "Cn1cc(Nc2nccc(N3CC4CCC(C3)N4C(=O)[C@@H]3CC3(F)F)n2)cn1", "values": [{"measurement": "% of inhibition", "setting": "[6]", "result": 97, "unit": "%"}]}, {"compound": "CCc1cc(Nc2nccc(-c3c(-c4ccc(OC)c(C(=O)Nc5c(F)cccc5F)c4)nc4ccccn34)n2)c(OC)cc1N1CCC(N2CCN(S(C)(=O)=O)CC2)CC1", "values": [{"measurement": "% of inhibition", "setting": "[7]", "result": 38, "unit": "%"}]}, {"compound": "CNC(=O)Nc1ccc(-c2nc(N3CC4CCC(C3)O4)c3cnn(C4CCC5(CC4)OCCO5)c3n2)cc1", "values": [{"measurement": "% of inhibition", "setting": "[8]", "result": 2, "unit": "%"}]}, {"compound": "CC[C@@H]1[C@H](F)C(=O)N[C@@H]1COc1nccc2cc(C(N)=O)c(OC)cc12", "note": "[ZIMLOVISERTIB]", "values": [{"measurement": "% of inhibition", "setting": "[9]", "result": -19.6, "unit": "%"}]}]}
